Laboratory results from a compilation of properties of binary mixtures (doi:10.1016/j.jct.2011.12.003).

Test: xn = mol fraction of the nth substance listed
Conditions: 101 kPa

CCCCCCO + CCCCCCCC[n+]1ccc2ccccc2c1.O=S(=O)([N-]S(=O)(=O)C(F)(F)F)C(F)(F)F
x1 = 1
Conditions	viscosity [mPa·s]
298.15 K	4.48
308.15 K	3.34
318.15 K	2.54
338.15 K	1.56

OCCc1ccccc1 + CCCCCCCC[n+]1ccc2ccccc2c1.O=S(=O)([N-]S(=O)(=O)C(F)(F)F)C(F)(F)F
x1 = 1
Conditions	viscosity [mPa·s]
298.15 K	10.9
308.15 K	7.19
318.15 K	4.98
328.15 K	3.64
338.15 K	2.77

CCCCO + CCCCCCCC[n+]1ccc2ccccc2c1.O=S(=O)([N-]S(=O)(=O)C(F)(F)F)C(F)(F)F
x1 = 1
Conditions	viscosity [mPa·s]
298.15 K	2.54
308.15 K	1.98
318.15 K	1.57
328.15 K	1.26
338.15 K	1.03

CCCCCCCC[n+]1ccc2ccccc2c1.O=S(=O)([N-]S(=O)(=O)C(F)(F)F)C(F)(F)F + CCCCCCO
viscosity [mPa·s]
Conditions	x2 = 0	x2 = 0.0854	x2 = 0.2857	x2 = 0.3673	x2 = 0.4981	x2 = 0.5825	x2 = 0.6854	x2 = 0.7913
298.15 K	369	287.4	136.9	95.1	58.56	42.65	28.18	17.78
308.15 K	191	153.3	78.6	56.09	35.72	26.62	18.08	11.64
318.15 K	108.7	89.2	–	35.66	23.49	17.79	12.37	8.11
328.15 K	67.9	56.19	32.57	24.14	16.33	12.59	8.87	5.88
338.15 K	44.8	37.54	22.77	17.2	11.88	9.24	–	4.44

CCCCCCCC[n+]1ccc2ccccc2c1.O=S(=O)([N-]S(=O)(=O)C(F)(F)F)C(F)(F)F + OCCc1ccccc1
viscosity [mPa·s]
Conditions	x2 = 0	x2 = 0.0851	x2 = 0.1985	x2 = 0.3101	x2 = 0.3748	x2 = 0.4969	x2 = 0.5766	x2 = 0.695	x2 = 0.8076	x2 = 0.8956
298.15 K	369	305	219	153.5	126.8	79.7	–	40.23	26.6	–
308.15 K	191	161.9	119.7	86.7	72.7	47.31	36.67	–	16.96	12.09
318.15 K	108.7	93.8	–	53.23	–	30.33	–	16.64	11.53	8.35
328.15 K	67.9	–	45.88	35.03	–	20.59	–	–	8.23	5.99
338.15 K	44.8	–	31.17	24.37	–	14.79	12.01	–	6.09	4.45

CCCCCCCC[n+]1ccc2ccccc2c1.O=S(=O)([N-]S(=O)(=O)C(F)(F)F)C(F)(F)F + CCCCO
viscosity [mPa·s]
Conditions	x2 = 0	x2 = 0.0865	x2 = 0.1708	x2 = 0.3134	x2 = 0.4036	x2 = 0.5032	x2 = 0.6067	x2 = 0.6915	x2 = 0.7937	x2 = 0.9314
298.15 K	369	276	205	–	84.3	–	33.87	22.84	12.59	6.1
308.15 K	191	151.2	115.2	–	51.64	34.34	21.89	–	8.77	4.39
318.15 K	108.7	89.2	69.5	44.66	32.98	22.81	15.04	10.61	–	3.32
328.15 K	67.9	56.1	–	29.85	22.59	16.01	10.88	7.77	4.72	2.58
338.15 K	44.88	37.87	31.27	–	16.68	11.78	8.15	–	–	2.06
